Drawing on ChEMBL document CHEMBL1125168, “Antihypertensive activity of redox derivatives of tryptophan” (J Med Chem, 1990), this text covers Ko for four molecules.

A short description of this series: Second-order rate of Ferricyanide -mediated oxidation using spectrophotometric method. The class given is ADME.
For `CCCCCCCCOC(=O)C(Cc1c[nH]c2ccccc12)NC(=O)c1ccc[n+](C)c1` (centres undefined), the Ko stood at 7.61 M⁻¹ s⁻¹.

Regarding `COC(=O)C(Cc1c[nH]c2ccccc12)NC(=O)c1ccc[n+](C)c1` (centres undefined), the Ko was 13.8 M⁻¹ s⁻¹. In the case of `CCOC(=O)C(Cc1c[nH]c2ccccc12)NC(=O)c1ccc[n+](C)c1` (centres undefined), the Ko is 13.5 M⁻¹ s⁻¹. `C[n+]1cccc(C(=O)NC(Cc2c[nH]c3ccccc23)C(=O)OC2CCCCC2)c1` (centres undefined) registered a Ko of 12.2 M⁻¹ s⁻¹.
